Test results: US20160346398A1, “CROSS-LINKED HYALURONIC ACID FOR DRUG DELIVERY AND PHARMACEUTICAL PREPARATION USING SAME” (ALURON BIOPHARMA INC., priority 2015, published 2016)
Read-outs that look alike come from different tables or passages of the source.

Tests used:
[1] = cited from earlier work
in vivo [2] = details: rat
Procedure: Quantification was performed using the selective MRM mode on a short LC column using a fast gradient.
Blood samples were collected at time 0, 30 min and 1, 3, 6, 24, 30 and 48 hrs. All plasma samples were collected after centrifugation and frozen at −80° C. Plasma was transferred on dry ice to the Platform of Biopharmacy and was kept at −80° C. until extraction and LC/MS/MS analysis (Table 1).
The plasma tubes were thawed on ice. Plasma samples were vortex mixed and 20 μL were pipetted into Eppendorf tubes. Proteins were precipitated by the addition of 40 μL acetonitrile. The tubes were vortex mixed and centrifuged for 4.5 min at 13,000 rpm. 20 μL of supernatant was transferred into a HPLC 96-well plate, and mixed with two volumes of water containing 5 mM ammonium acetate. The calibration curve was prepared in blank SD rat plasma, by serial dilution from 10 μM to […] Standard plasma samples were treated as described above.
Chromatography was performed on a Phenomenex Luna C8(2) 30×2 mm (5 μm) using gradient elution at 0.7 mL/min. The injection volume was 4 μL. The total acquisition time was 4.5 min. Samples were analyzed in selective MRM mode using LC-MS/MS. Peak area ratios for calibration curves and quantification of samples were calculated using Analyst software version 1.6.2. Calibration curves were plotted using the peak area ratios analyte/internal standard versus nominal analyte concentration, using a quadratic weighted 1/x regression.

in vivo [3] = details: male, rat, po, 50 mg/kg, plasma Raloxifene
[4] = rat, in vivo

Compound | water solubility (in words) [1] | Cmax (in vivo [2]; male, SD (Sprague-Dawley), po, 5 mg/kg, Cmax, plasma Letrozole) [nM] | Tmax (in vivo [2]; male, SD (Sprague-Dawley), po, 5 mg/kg, plasma Letrozole) [h] | Tmax (in vivo [2]; male, SD, po, 5 mg/kg, plasma Letrozole) [h] | drug toxicity after combination with HA (in vivo [2]) | bioavailability after combination with HA (in vivo [2]; po) | Cmax (in vivo [3]; SD (Sprague-Dawley), Cmax) [nM] | Tmax (in vivo [3]; SD (Sprague-Dawley)) [h] | Tmax (in vivo [3]; SD) [h] | drug toxicity after combination with HA [4] | bioavailability after combination with HA ([4]; po)
CCc1c2c(nc3ccc(OC(=O)N4CCC(N5CCCCC5)CC4)cc13)-c1cc3c(c(=O)n1C2)COC(=O)[C@]3(O)CC [Irinotecan] | good water solubility |  |  |  |  |  |  |  |  |  | 
N#Cc1ccc(C(c2ccc(C#N)cc2)n2cncn2)cc1 [Letrozole] | very poor water solubility | 4240 | 4.5 | 6 | no detectable augmentation of the drug toxicity | increased |  |  |  |  | 
O=C(c1ccc(OCCN2CCCCC2)cc1)c1c(-c2ccc(O)cc2)sc2cc(O)ccc12 [Raloxifene] | very poor water solubility |  |  |  |  |  | 190 | 4.5 | 3 | no detectable augmentation of the drug toxicity | increased
